Measured values as given in patent US12629351B2, “HDAC inhibitors for idiopathic pulmonary fibrosis and other lung inflammatory disorders” (COUNCIL OF SCIENTIFIC AND INDUSTRIAL RESEARCH (AN INDIAN …, priority 2020, dated 2026).

Assays:
NHLF cells = test: q-RT-PCR gene expression in TGF-β1 stimulated NHLF cells; assay type: cell-based, human
Procedure: (§1) LL29 cells (lung fibroblasts from IPF patient) were purchased from ATCC and cultured in Ham's F-12K medium supplemented with 15% FBS. Primary lung fibroblasts cells, NHLF and DHLF-IPF cells were purchased from LONZA and cultured in FGF-2 medium with FGF, Insulin and FBS. All the cells were maintained in a humidified atmosphere of 95% air with 5% CO2 at 37° C.
(§2) Cells were pre-treated with HDAC-inhibitors (COMPOUND-109, COMPOUND-108 and COMPOUND-107) for 2 hours in serum free media and then human recombinant TGF-β (R&D Systems, Minneapolis, MN) was added at a concentration of 5 ng/mL and cultured for 72 hours for all the experiments.
(§3) RNA isolation was carried out using Trizol as described^12,13. RNA was isolated using Trizol-chloroform method and total RNA was quantified using nano-drop, 1 μg of RNA was used for cDNA synthesis using primescript cDNA synthesis kit (Takara bio) according to manufacturer's instructions. Primers for EMT (Fibronectin1 (FN1), Vimentin, α-SMA and Snail) markers, ECM markers (Timp1, Timp3 and LoxL2), Collagen markers (Collagen 1α1 (Col1) and Collagen 3α1[…] and housekeeping markers (β2M and β-actin) were designed using Primer 3 software and all primer sequences were listed in Table 1. Real time quantitative PCR (qRT-PCR) was carried out using SYBR green master mix and the differences in mRNA expression of all the gene levels were calculated as the fold change using the formula 2-ΔΔct. In all Q-RT-PCR data plots, vehicle control fold change was normalized to 1.

LL29 cells = test: q-RT-PCR gene expression in TGF-β1 stimulated LL29 cells; assay type: cell-based, human
Procedure: as §1, §2, §3

[1] = test system: NHLF, DHLF and LL29 cells; test: q-RT-PCR gene expression in TGF-β1 stimulated cells, statements not split by cell line; assay type: cell-based, human; details: for HDAC-8 levels (gene expression): TGF-β1 stimulated, other concentrations
Procedure: as §1, §2, §3

[2] = test system: BLM-induced pulmonary fibrosis; test: Bleomycin (BLM) induced pulmonary fibrosis model; assay type: in vivo, Wistar rats; details: for ALP levels / LDH levels: BALF, oral, daily for 14 days; for BLM induced thickened alveolar walls, inflammatory cells infiltration, deposition of collagen fibers (histopathology): H&E (Fibrosis score) and Masson's staining (Ashcroft score), compared BLM alone group; for BLM-induced inflammation, fibrotic marker expression and pathological changes in lung tissues: collective in-vivo conclusion
Procedure: as §3
Adult female Wistar rats (180-200 g, n=50) at the age of 8-10 weeks were used to develop bleomycin induced pulmonary fibrosis model. All animals were kept under constant environmental and nutritional conditions throughout the experimental period. The research protocol complies with the ethical guidelines of experimental research; “Institutional Animal Ethics Committee” (CPSCEA Registration No. 97/GO/RBi/S/1999/CPCSEA and study approval No. IICT/056/2019), CSIR-IICT, Hyderabad.
Except 8 animals (Sham control), pulmonary fibrosis was induced in remaining all animals (32 Wistar rats) by intratracheal instillation of BLM (5 mg/kg) as sulfate salt dissolved in 1 mL of normal saline. Rats were anesthetized using ketamine and xylazine (80 mg/kg and 15 mg/kg respectively as per body weight, I.P.). BLM was administered intratracheally into the lungs of the rats.
Pulmonary fibrosis was induced by a single intratracheal instillation of BLM (5 mg/kg) to the set of animals (n=40) excluding sham control animals (n=8)^14. BLM was dissolved in saline to attain the concentration of 5 mg/ml. Animals were anesthetized with ketamine (80 mg/kg) and xylazine (10 mg/kg). BLM was administered intratracheal (5 mg/kg) to the anesthetized Wistar rats and saline was administered intratracheally in to sham control animals. […] Further, these animals were randomized into four groups (as described in Table-2) apart from sham control (8 rats/group).
As described in the grouping pattern Table 2 and 3, animals were grouped and administered the compounds orally in the form of gum-acacia suspension (0.25%) daily for 14 days. Sham control (without bleomycin) animals were used as a control for bleomycin control (disease control) and administered everyday 0.5 mL of saline for 14 days orally. After the treatment period, BALF fluid was collected from 4 animals in each group and lungs were collected from another 4 animals for ex-vivo experiments and histopathological observations.
(§4) In 4 animals from each group, the thoracic cavity was opened and the tracheas were exposed, cannulated and 3 mL sterile 0.9% saline was slowly infused into the lungs. BALF was centrifuged at 2000 rpm, 4 ° C. for 10 min using cooling centrifuge. The sedimented cell pellets were pooled and re-suspended in 500 μl of sterile saline to quantify inflammatory cell counts; supernatant BLAF was examined for ALP and LDH parameters using auto-analyzer.
Collagen deposition was determined by measuring the total hydroxyproline content in wet lung tissue, which was measured by a hydroxyproline assay kit (abcam), according to the manufacturer's protocol. In brief, lungs were homogenized in sterile distilled water, alkalized using 10N NaOH and heated at 120° C. for 1 hour. Following alkaline hydrolysis samples were neutralized using 10N concentrated HCL. Then samples were into 96 well plate along with standards and kept for evaporation at 65° C. Then samples were oxidized by adding oxidation mixture followed by addition of developer and incubated at 37° C. for 5 min. […]

LPS induced ARDS = LPS induced ARDS model; assay type: in vivo, SD rats
Procedure: as §3
Treatment group animals were treated with HDACi (COMPOUND-108) for 7 days at the doses of (1.5 mg/kg and 3 mg/kg), after the treatment period animals were subjected to ARDS instillation by intratracheally. Rats were anesthetized using ketamine and xylazine (80 mg/kg and 20 mg/kg, respectively as per body weight, I.P.). Except 8 animals (Sham control), ARDS was induced in remaining all animals (24 SD rats) by intratracheal instillation of Lipopolysachharide (5 mg/kg) dissolved in normal saline.
as §4
A portion of the pulmonary lobe was harvested, rinsed with ice-cold phosphate buffer saline, and fixed with 10% neutral-buffered formalin, embedded in paraffin wax, sectioned (6 μm) and stained with H&E and Masson's trichrome. Three serial slices of 3 μm thickness each 50 μm apart of both lung lobes were stained with Masson's Trichrome. The slides were analyzed with a microscope in a random order using an (10×) objective. The severity of fibrosis and alveolitis in lung tissues (using H&E and Masson's trichrome staining) was semi-quantitatively assessed by a pathologist in a blinded fashion via Ashcroft scoring system^15. The structural alterations of tissue were assessed based on the degree haemorrhage, emphysema, alveolar wall thickening, inflammatory lesions and collagen deposition or fibrosis^16.

For Cn1cc(-c2cc(O)cc(F)c2)c2cc(NS(=O)(=O)c3ccc(C(=O)NO)cc3)ccc21 [COMPOUND-107, 4-(N-(3-(3-fluoro-5-hydroxyphenyl)-1-methyl-1H-indol-5-yl)sulfamoyl)-N-hydroxyl benzamide], the vimentin levels (NHLF cells) was “highly reduced”, the α-SMA levels (NHLF cells) was “highly reduced” and the vimentin levels (LL29 cells) was “highly reduced”. The α-SMA levels (LL29 cells) was “highly reduced”, the Snail levels (LL29 cells; 10 and 20 μM) was “highly down-regulated” and the “HDAC-8 levels (gene expression)” value [1] was “did not modulate”. For the same molecule, the “HDAC-6 mRNA levels” value ([1]; summary of Example 2) was “could inhibit only HDAC-6 mRNA levels”.
With Cn1cc(-c2cccc(Cl)c2)c2cc(NS(=O)(=O)c3ccc(C(=O)NO)cc3)ccc21 [COMPOUND-108, 4-(N-(3-(3-chlorophenyl)-1-methyl-1H-indol-5-yl)sulfamoyl)-N-hydroxybenzamide] the vimentin levels (NHLF cells) was “highly reduced”, the α-SMA levels (NHLF cells) was “highly reduced” and the “HDAC-8 levels (gene expression)” value (NHLF cells; 2.5 μM) was “reduced”. For the same molecule, the vimentin levels (LL29 cells) was “highly reduced”, the α-SMA levels (LL29 cells) was “highly reduced” and the “HDAC-8 levels (gene expression)” value (LL29 cells; 2.5 μM) was “reduced”. For the same molecule, the Snail levels (LL29 cells; 5 and 10 μM) was “highly down-regulated”, the “HDAC-8 levels (gene expression)” value [1] was “did not modulate” and the “HDAC-6 mRNA levels” value ([1]; summary of Example 2) was “potentially inhibits”. The “HDAC-8 mRNA levels” value ([1]; summary of Example 2) was “potentially inhibits”, the ALP levels [2] was “reduced in dose dependently” and the LDH levels [2] was “reduced in dose dependently”. For the same molecule, the “BLM induced thickened alveolar walls, inflammatory cells infiltration, deposition of collagen fibers (histopathology)” value [2] was “reduced”, the “BLM-induced inflammation, fibrotic marker expression and pathological changes in lung tissues” value [2] was “could effectively protect” and the “fibrotic alterations in BLM challenged rat lung tissues” value ([2]; statement in embodiment) was “most effectively ameliorated”. The “lung injury and infiltration of inflammatory cells (histopathology)” value (LPS induced ARDS; 1.5 mg/kg) was “significant (p<0.01) reduction”, the “LPS induced Neutrophil count in blood” value (LPS induced ARDS; 3 mg/kg) was “significantly attenuated” and the “lung injury and infiltration of inflammatory cells (histopathology)” value (LPS induced ARDS; 3 mg/kg) was “significant (p<0.01) reduction”. The “plasma IL-6 Levels” value (LPS induced ARDS; 3 mg/kg, at both the time points) was “reduced”, the “LPS induced infiltration of Neutrophils” value (LPS induced ARDS; BALF) was “significantly attenuated” and the “LPS induced infiltration of WBC” value (LPS induced ARDS; BALF) was “significantly attenuated”. For the same molecule, the “LPS induced expression of inflammatory markers (IL-6, IL-1β, CCl2, Cox-2, CXCL-6, CCL-7, CXCL-1, CXCL-10)” value (LPS induced ARDS; lung tissues, mRNA, dose dependent manner) was “significantly attenuated”, the “LPS induced inflammatory marker's expression (CXCL-11, TLR-3 and INF-γ)” value (LPS induced ARDS; lung tissues, mRNA, in dose dependent manner) was “significantly attenuated” and the “pathological consequences (LPS induced), H&E” value (LPS induced ARDS; pre-treatment at 1.5 and 3 mg/kg doses) was “remarkably repressed”. The “LPS induced Lung volume (index)” value (LPS induced ARDS; rat, in vivo) was “significantly attenuated”, the “LPS induced spleen Indices” value (LPS induced ARDS; rat, in vivo) was “significantly attenuated” and the lung pathological conditions (LPS induced ARDS; statement in embodiment) was “most effectively ameliorated”.
For CCOc1ccc(-c2cn(C)c3ccc(NS(=O)(=O)c4ccc(C(=O)NO)cc4)cc23)cn1 [COMPOUND-109, 4-(N-(3-(6-ethoxypyridin-3-yl)-1-methyl-1H-indol-5-yl)sulfamoyl)-N-hydroxy benzamide], the vimentin levels (NHLF cells) was “not modulated”, the α-SMA levels (NHLF cells) was “highly reduced” and the vimentin levels (LL29 cells) was “not modulated”. For the same molecule, the α-SMA levels (LL29 cells) was “highly reduced”, the “HDAC-8 levels (gene expression)” value [1] was “did not modulate” and the “HDAC-6 mRNA levels” value ([1]; summary of Example 2) was “could inhibit only HDAC-6 mRNA levels”. The ALP levels [2] was “reduced in dose dependently”, the LDH levels [2] was “reduced in dose dependently” and the “BLM induced thickened alveolar walls, inflammatory cells infiltration, deposition of collagen fibers (histopathology)” value [2] was “reduced”. The “BLM-induced inflammation, fibrotic marker expression and pathological changes in lung tissues” value [2] was “could effectively protect”.
